Assay results published in patent publication US20060069132A1, “Azolecarboxamide herbicides” (priority 2004, published 2006).

Assays:
barnyardgrass [1] = experiment: Test B pre-/postemergence herbicide test; type: in vivo, Echinochloa crus-galli; details: for Plant response rating (0 to 100 scale), Barnyardgrass: 0 is no effect, 100 is complete control, preemergence; for Barnyardgrass plant response rating: Postemergence, scale 0 (no effect) to 100 (complete control)
Procedure, shortened: (§1)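 Test chemicals in a non-phytotoxic solvent mixture with surfactant were applied preemergence to seeded species and postemergence to plants 2-18 cm tall (1- to 4-leaf stage); rice and barnyardgrass were also tested in a flooded paddy at the 2-leaf stage. Visual rating versus controls after 13-15 days in greenhouse, scale 0 (no effect) to 100 (complete control).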

Surinam grass = experiment: Test B pre-/postemergence herbicide test; type: in vivo, Urochloa decumbens; details: for Plant response rating (0 to 100 scale), Surinam Grass: 0 is no effect, 100 is complete control, preemergence
Procedure, shortened: as §1

cocklebur = experiment: Test B pre-/postemergence herbicide test; type: in vivo, Xanthium strumarium; details: for Plant response rating (0 to 100 scale), Cocklebur: 0 is no effect, 100 is complete control, preemergence
Procedure, shortened: as §1

corn = experiment: Test B pre-/postemergence herbicide test; type: in vivo, Zea mays; details: for Plant response rating (0 to 100 scale), Corn: 0 is no effect, 100 is complete control, preemergence
Procedure, shortened: as §1

large crabgrass = experiment: Test B pre-/postemergence herbicide test; type: in vivo, Digitaria sanguinalis; details: for Plant response rating (0 to 100 scale), Crabgrass, Large: 0 is no effect, 100 is complete control, preemergence
Procedure, shortened: as §1

giant foxtail = experiment: Test B pre-/postemergence herbicide test; type: in vivo, Setaria faberi; details: for Plant response rating (0 to 100 scale), Foxtail, Giant: 0 is no effect, 100 is complete control, preemergence
Procedure, shortened: as §1

pigweed = experiment: Test B pre-/postemergence herbicide test; type: in vivo, Amaranthus retroflexus; details: for Plant response rating (0 to 100 scale), Pigweed: 0 is no effect, 100 is complete control, preemergence
Procedure, shortened: as §1

velvetleaf = experiment: Test B pre-/postemergence herbicide test; type: in vivo, Abutilon theophrasti; details: for Plant response rating (0 to 100 scale), Velvetleaf: 0 is no effect, 100 is complete control, preemergence
Procedure, shortened: as §1

blackgrass = experiment: Test B postemergence herbicide test; type: in vivo, Alopecurus myosuroides
Procedure, shortened: (§2)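 Paddy species grown to the 2-leaf stage under flooding; blackgrass sprayed postemergence at 2–18 cm (1- to 4-leaf stage). Plants kept in a greenhouse for 13 to 15 days, then visually rated against controls on 0 (no effect) to 100 (complete control).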

wheat = experiment: Test B postemergence herbicide test; type: in vivo, Triticum aestivum; parameters: key to Wheat plant response rating: 0 = no effect, 100 = complete control
Procedure, shortened: (§3)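 Scale 0–100: zero equals no visible effect, 100 complete control, judged by eye relative to controls. Timing: 13 to 15 days in greenhouse post-treatment. Growth stage at spraying: two leaves (paddy) or one to four leaves, 2–18 cm (postemergence).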

wild oat = experiment: Test B postemergence herbicide test; type: in vivo, Avena fatua
Procedure, shortened: as §3

rice = experiment: Test B flooded paddy test; type: in vivo, Oryza sativa; details: 1000 g ai/ha, scale 0 to 100 (0 no effect, 100 complete control)
Procedure, shortened: as §2

[2] = tested on: small flower umbrella sedge; experiment: Test B flooded paddy test; type: in vivo, Cyperus difformis; details: 1000 g ai/ha, scale 0 to 100 (0 no effect, 100 complete control)
Procedure, shortened: as §2

ducksalad = experiment: Test B flooded paddy test; type: in vivo, Heteranthera limosa; details: 1000 g ai/ha, scale 0 to 100 (0 no effect, 100 complete control)
Procedure, shortened: as §2

barnyardgrass [3] = experiment: Test B flooded paddy test; type: in vivo, Echinochloa crus-galli; details: 1000 g ai/ha, scale 0 to 100 (0 no effect, 100 complete control)
Procedure, shortened: as §2

[4] = Postemergence, 500 g ai/ha, scale 0 (no effect) to 100 (complete control)
[5] = postemergence, 125 g ai/ha, scale 0 to 100
[6] = 500 g ai/ha, scale 0 to 100, 0 no effect, 100 complete control, preemergence

SMILES | Plant response rating (0 to 100 scale), Barnyardgrass (barnyardgrass [1]; 125 g ai/ha) | Barnyardgrass plant response rating (barnyardgrass [1]; 125 g ai/ha) | Barnyardgrass plant response rating (barnyardgrass [1]; 500 g ai/ha) | Plant response rating (0 to 100 scale), Surinam Grass (Surinam grass; 125 g ai/ha) | Surinam Grass plant response rating (Surinam grass; [4]) | Surinam Grass plant response rating (Surinam grass; [5]) | Plant response rating (0 to 100 scale), Cocklebur (cocklebur; 125 g ai/ha) | Cocklebur plant response rating (cocklebur; [4]) | Cocklebur plant response rating (cocklebur; [5]) | Plant response rating (0 to 100 scale), Corn (corn; 125 g ai/ha) | Corn plant response rating (corn; [4]) | Corn plant response rating (corn; [5]) | Plant response rating (0 to 100 scale), Crabgrass, Large (large crabgrass; 125 g ai/ha) | Crabgrass, Large plant response rating (large crabgrass; [4]) | Crabgrass, Large plant response rating (large crabgrass; [5]) | Plant response rating (0 to 100 scale), Foxtail, Giant (giant foxtail; 125 g ai/ha) | Foxtail, Giant plant response rating (giant foxtail; [4]) | Foxtail, Giant plant response rating (giant foxtail; [5]) | Plant response rating (0 to 100 scale), Pigweed (pigweed; 125 g ai/ha) | Pigweed plant response rating (pigweed; [4]) | also measured
CCc1nn(C(C)(C)C)nc1C(=O)Nc1cccc(C(=O)NC2CC2)c1 [Compound 417] | 80 | 10 | 20 | 80 | 30 | 10 | 0 | 40 | 20 | 40 | 30 | 10 | 100 | 40 | 20 | 70 | 40 | 20 | 90 | 80 | Pigweed plant response rating (pigweed; [5]): 50; Plant response rating (0 to 100 scale), Velvetleaf (velvetleaf; 125 g ai/ha): 50; Velvetleaf plant response rating (velvetleaf; [4]): 40; Velvetleaf plant response rating (velvetleaf; [5]): 20; Blackgrass plant response rating (blackgrass; [4]): 40; Blackgrass plant response rating (blackgrass; [5]): 10; Wheat plant response rating (wheat; [6]): 90; Wheat plant response rating (wheat; [4]): 20; Wheat plant response rating (wheat; [5]): 10; Oat, Wild plant response rating (wild oat; [4]): 40; Oat, Wild plant response rating (wild oat; [5]): 10; Rice plant response rating (rice): 70; Sedge, Umbrella plant response rating [2]: 70; Ducksalad plant response rating (ducksalad): 80; Barnyardgrass plant response rating (barnyardgrass [3]): 70
CCN(CC)C(=O)c1cccc(NC(=O)c2nn(C(C)(C)C)nc2C)c1 [Compound 418] | 70 | 20 | 20 | 90 | 20 | 20 | 0 | 30 | 20 | 10 | 20 | 20 | 100 | 30 | 20 | 80 | 40 | 20 | 100 | 80 | Pigweed plant response rating (pigweed; [5]): 70; Plant response rating (0 to 100 scale), Velvetleaf (velvetleaf; 125 g ai/ha): 50; Velvetleaf plant response rating (velvetleaf; [4]): 40; Velvetleaf plant response rating (velvetleaf; [5]): 20; Blackgrass plant response rating (blackgrass; [4]): 30; Blackgrass plant response rating (blackgrass; [5]): 10; Wheat plant response rating (wheat; [6]): 100; Wheat plant response rating (wheat; [4]): 20; Wheat plant response rating (wheat; [5]): 10; Oat, Wild plant response rating (wild oat; [4]): 10; Oat, Wild plant response rating (wild oat; [5]): 0; Rice plant response rating (rice): 60; Sedge, Umbrella plant response rating [2]: 80; Ducksalad plant response rating (ducksalad): 70; Barnyardgrass plant response rating (barnyardgrass [3]): 80
